From US6936585B2, “Corticotropin releasing factor 2 receptor agonists” (priority 2002, dated 2005)
Peptide text beside a SMILES is read from it.

How the values were obtained:
[1] = target: T1, CRF1R (Homo sapiens, UniProt P34998); assay: CRF1R agonist activation (EC50 / Emax), called comparative CRF binding; format: cell-based; details: read-out: CRF1R Emax
T1 sequence (P34998 24-415): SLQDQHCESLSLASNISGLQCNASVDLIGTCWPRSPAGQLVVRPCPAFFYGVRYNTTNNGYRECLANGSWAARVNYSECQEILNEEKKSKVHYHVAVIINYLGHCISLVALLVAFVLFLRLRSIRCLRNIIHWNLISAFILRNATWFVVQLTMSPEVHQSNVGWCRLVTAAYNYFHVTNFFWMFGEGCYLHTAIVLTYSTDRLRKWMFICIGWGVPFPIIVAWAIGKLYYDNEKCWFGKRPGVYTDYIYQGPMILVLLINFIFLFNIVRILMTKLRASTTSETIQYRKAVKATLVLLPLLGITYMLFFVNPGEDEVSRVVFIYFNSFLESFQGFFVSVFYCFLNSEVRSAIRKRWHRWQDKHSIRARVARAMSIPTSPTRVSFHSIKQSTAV
In short: (§1)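 Read-out is Gαs-driven cAMP induction, quantified directly in lysates or through CRE-reporter gene expression, after treating CRF1R- or CRF2R-expressing cells with peptide. Vehicle-treated cells serve as the comparison.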

[2] = target: T2, CRF2R (Homo sapiens, UniProt Q13324); assay: CRF2R agonist activation (EC50 / Emax), called comparative CRF binding; format: cell-based; details: read-out: CRF2R Emax
T2 sequence (Q13324 1-411): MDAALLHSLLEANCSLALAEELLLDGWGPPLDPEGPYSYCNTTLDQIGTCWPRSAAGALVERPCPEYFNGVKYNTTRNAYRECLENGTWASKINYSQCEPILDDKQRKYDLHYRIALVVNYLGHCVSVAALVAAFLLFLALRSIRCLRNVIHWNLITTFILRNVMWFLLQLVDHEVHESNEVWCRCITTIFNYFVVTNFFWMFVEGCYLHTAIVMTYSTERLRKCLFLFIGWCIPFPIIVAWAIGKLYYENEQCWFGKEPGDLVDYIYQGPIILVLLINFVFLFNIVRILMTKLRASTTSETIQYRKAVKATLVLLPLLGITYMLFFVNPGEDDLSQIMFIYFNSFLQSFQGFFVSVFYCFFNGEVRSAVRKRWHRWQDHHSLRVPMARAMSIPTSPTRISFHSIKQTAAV
In short: as §1

`CC[C@H](C)[C@H](N)C(=O)N[C@H](C(=O)N[C@@H](CC(C)C)C(=O)N[C@@H](CO)C(=O)N[C@@H](CC(C)C)C(=O)N[C@@H](CC(=O)O)C(=O)N[C@H](C(=O)N1CCC[C@H]1C(=O)N[C@H](C(=O)NCC(=O)N[C@@H](CC(C)C)C(=O)N[C@@H](CC(C)C)C(=O)N[C@@H](CCC(N)=O)C(=O)N[C@H](C(=O)N[C@@H](CC(C)C)C(=O)N[C@H](C(=O)N[C@@H](CCC(=O)O)C(=O)N[C@H](C(=O)N[C@@H](CCC(=O)O)C(=O)N[C@@H](CCCCN)C(=O)N[C@@H](CCC(N)=O)C(=O)N[C@@H](CCC(=O)O)C(=O)N[C@@H](CCCCN)C(=O)N[C@@H](CCC(=O)O)C(=O)N[C@@H](CCCCN)C(=O)N[C@@H](CCC(N)=O)C(=O)N[C@@H](CCC(N)=O)C(=O)N[C@@H](C)C(=O)N[C@@H](C)C(=O)N[C@@H](CC(N)=O)C(=O)N[C@@H](CC(N)=O)C(=O)N[C@@H](CCCNC(=N)N)C(=O)N[C@@H](CC(C)C)C(=O)N[C@@H](CC(C)C)C(=O)N[C@@H](CC(C)C)C(=O)N[C@@H](CC(=O)O)C(=O)N[C@H](C(=O)N[C@H](C(N)=O)[C@@H](C)CC)[C@@H](C)O)[C@@H](C)CC)[C@@H](C)CC)[C@@H](C)CC)[C@@H](C)CC)C(C)C)C(C)C` [compound 154] (H-IVLSLDVPIGLLQILIEIEKQEKEKQQAANNRLLLDTI-NH2; N-terminus assumed) gave an Emax [1] of 7% and an Emax [2] of 100%.
For `CC[C@H](C)[C@H](N)C(=O)N[C@H](C(=O)N[C@@H](CC(C)C)C(=O)N[C@@H](CO)C(=O)N[C@@H](CC(C)C)C(=O)N[C@@H](CC(=O)O)C(=O)N[C@H](C(=O)N1CCC[C@H]1C(=O)N[C@H](C(=O)NCC(=O)N[C@@H](CC(C)C)C(=O)N[C@@H](CC(C)C)C(=O)N[C@@H](CCC(N)=O)C(=O)N[C@H](C(=O)N[C@@H](CC(C)C)C(=O)N[C@@H](CC(C)C)C(=O)N[C@@H](CCC(=O)O)C(=O)N[C@@H](CCSC)C(=O)N[C@H](C(=O)N[C@@H](CCCCN)C(=O)N[C@@H](C)C(=O)N[C@@H](CC(=O)O)C(=O)N[C@@H](CCC(N)=O)C(=O)N[C@@H](CC(C)C)C(=O)N[C@@H](C)C(=O)N[C@@H](CCC(N)=O)C(=O)N[C@@H](CCC(N)=O)C(=O)N[C@@H](C)C(=O)N[C@@H](Cc1c[nH]cn1)C(=O)N[C@@H](CO)C(=O)N[C@@H](CC(N)=O)C(=O)N[C@@H](CCCNC(=N)N)C(=O)N[C@@H](CCCCN)C(=O)N[C@@H](CC(C)C)C(=O)N[C@@H](CC(C)C)C(=O)N[C@@H](CC(=O)O)C(=O)N[C@H](C(=O)N[C@@H](C)C(N)=O)[C@@H](C)CC)[C@@H](C)O)[C@@H](C)CC)[C@@H](C)CC)C(C)C)C(C)C` [compound 155] (H-IVLSLDVPIGLLQILLEMTKADQLAQQAHSNRKLLDIA-NH2; N-terminus assumed), the Emax [1] was 16% and the Emax [2] was 94%.
Work on `CC[C@H](C)[C@H](N)C(=O)N[C@H](C(=O)N[C@@H](CC(C)C)C(=O)N[C@@H](CO)C(=O)N[C@@H](CC(C)C)C(=O)N[C@@H](CC(=O)O)C(=O)N[C@H](C(=O)N1CCC[C@H]1C(=O)N[C@H](C(=O)NCC(=O)N[C@@H](CC(C)C)C(=O)N[C@@H](CC(C)C)C(=O)N[C@@H](CCC(N)=O)C(=O)N[C@H](C(=O)N[C@@H](CC(C)C)C(=O)N[C@@H](CC(C)C)C(=O)N[C@@H](CCC(=O)O)C(=O)N[C@H](C(=O)N[C@@H](CCC(=O)O)C(=O)N[C@@H](CCCCN)C(=O)N[C@@H](CCC(N)=O)C(=O)N[C@@H](CCC(=O)O)C(=O)N[C@@H](CCCCN)C(=O)N[C@@H](CCC(=O)O)C(=O)N[C@@H](CCCCN)C(=O)N[C@@H](CCC(N)=O)C(=O)N[C@@H](CCC(N)=O)C(=O)N[C@@H](C)C(=O)N[C@@H](C)C(=O)N[C@@H](CC(N)=O)C(=O)N[C@@H](CC(N)=O)C(=O)N[C@@H](CCCNC(=N)N)C(=O)N[C@@H](CC(C)C)C(=O)N[C@@H](CC(C)C)C(=O)N[C@@H](CC(C)C)C(=O)N[C@@H](CC(=O)O)C(=O)N[C@H](C(=O)N[C@H](C(N)=O)[C@@H](C)CC)[C@@H](C)O)[C@@H](C)CC)[C@@H](C)CC)[C@@H](C)CC)C(C)C)C(C)C` [compound 158] (H-IVLSLDVPIGLLQILLEIEKQEKEKQQAANNRLLLDTI-NH2) yielded an Emax [1] of 15% and an Emax [2] of 89%.
